Test results published in ChEMBL document CHEMBL3862025, “Novel substituted hydrazono indolo[2,1-b]quinazoline-6,12-dione analogues as cytostatic agents: Synthesis, crystal structure, biological evaluation and molecular docking studies” (Bioorg Med Chem Lett, 2016).
Values after ≈ are worked out from the molar mass of the structure shown.

Key:
[1] = Cytotoxicity against human A549 cells assessed as inhibition of cell viability after 48 hrs by MTT assay; type: functional, cell-based; conditions: A549, 48 h
Staphylococcus aureus = assay: Antibacterial activity against Staphylococcus aureus after 24 hrs by broth dilution method; type: functional
Aspergillus niger = assay: Antifungal activity against Aspergillus niger by agar streak dilution method; type: functional
[2] = Cytotoxicity against human HeLa cells assessed as inhibition of cell viability after 48 hrs by MTT assay; type: functional, cell-based
Klebsiella pneumoniae = assay: Antibacterial activity against Klebsiella pneumoniae after 24 hrs by broth dilution method; type: functional
[3] = Cytotoxicity against human MCF7 cells assessed as inhibition of cell viability after 48 hrs by MTT assay; type: functional, cell-based; conditions: MCF7, 48 h
Bacillus subtilis = assay: Antibacterial activity against Bacillus subtilis after 24 hrs by broth dilution method; type: functional
Escherichia coli = assay: Antibacterial activity against Escherichia coli after 24 hrs by broth dilution method; type: functional
[4] = Antifungal activity against Penicillium notatum by agar streak dilution method; type: functional; conditions: Penicillium chrysogenum
[5] = Cytotoxicity against HEK293 cells assessed as inhibition of cell viability after 48 hrs by MTT assay; type: toxicity, cell-based; conditions: human

Row | Structure (SMILES) | IC50 [1] [µM] | MIC (Staphylococcus aureus) [µg/mL] | MIC (Aspergillus niger) [µg/mL] | IC50 [2] [µM] | MIC (Klebsiella pneumoniae) [µg/mL] | IC50 [3] [µM] | MIC (Bacillus subtilis) [µg/mL] | MIC (Escherichia coli) [µg/mL] | MIC [4] [µg/mL] | IC50 at 48 h [5] [µM]
1 | COc1ccc2c(c1)/C(=N/N=C1/C=C(O)CC(C)(C)C1)c1nc3ccccc3c(=O)n1-2 | 67.8 | > 100 | 100 (≈ 241 µM) | 56.9 | > 100 | 68.7 | > 100 | > 100 | > 100 | –
2 | C/C(O)=C/C(C)=N/N=C1/c2ccccc2-n2c1nc1ccccc1c2=O | 43.9 | 25 (≈ 72.6 µM) | > 100 | 44.8 | 12.5 (≈ 36.3 µM) | 42.1 | 25 (≈ 72.6 µM) | 50 (≈ 145 µM) | > 100 | –
3 | COc1ccc2c(c1)/C(=N/N=C(C)C=C(O)c1ccccc1)c1nc3ccccc3c(=O)n1-2 | 29.3 | > 100 | 25 (≈ 57.3 µM) | 33.7 | > 100 | 31.1 | > 100 | > 100 | 50 (≈ 115 µM) | –
4 | CC(C=C(O)c1ccccc1)=N/N=C1/c2cc(Br)ccc2-n2c1nc1ccccc1c2=O | 9.18 | > 100 | 25 (≈ 51.5 µM) | 10.6 | > 100 | 7.14 | > 100 | > 100 | 25 (≈ 51.5 µM) | 46.1
5 | O=c1c2ccccc2nc2n1-c1ccc(Br)cc1/C2=N/N=C1/C=C(O)CCC1 | 41.7 | 6.25 (≈ 14.4 µM) | 6.25 (≈ 14.4 µM) | 35.8 | 6.25 (≈ 14.4 µM) | 43.9 | 3.12 (≈ 7.18 µM) | 12.5 (≈ 28.7 µM) | 6.25 (≈ 14.4 µM) | –
6 | O=c1c2ccccc2nc2n1-c1ccc(Br)cc1/C2=N/N=C1/C=C(O)c2ccccc21 | 20.4 | 1.56 (≈ 3.33 µM) | 3.12 (≈ 6.66 µM) | 17 | 3.12 (≈ 6.66 µM) | 15.9 | 1.56 (≈ 3.33 µM) | 3.12 (≈ 6.66 µM) | 6.25 (≈ 13.3 µM) | 55.2
7 | CC(O)=CC(C)=N/N=C1/c2cc(C)cc(C)c2-n2c1nc1ccccc1c2=O | 46.6 | 12.5 (≈ 33.6 µM) | 100 (≈ 269 µM) | 42 | 6.25 (≈ 16.8 µM) | 44.5 | 12.5 (≈ 33.6 µM) | 25 (≈ 67.1 µM) | 100 (≈ 269 µM) | –
8 | O=c1c2ccccc2nc2n1-c1ccccc1/C2=N/N=C1/C=C(O)c2ccccc21 | 56.4 | 3.12 (≈ 8 µM) | 6.25 (≈ 16 µM) | 49.4 | 1.56 (≈ 4 µM) | 50.3 | 6.25 (≈ 16 µM) | 12.5 (≈ 32 µM) | 12.5 (≈ 32 µM) | –
9 | CC1(C)CC(O)=C/C(=N/N=C2/c3ccccc3-n3c2nc2ccccc2c3=O)C1 | 66.2 | 50 (≈ 130 µM) | 100 (≈ 260 µM) | 59.3 | 12.5 (≈ 32.5 µM) | 68.8 | 50 (≈ 130 µM) | 50 (≈ 130 µM) | 100 (≈ 260 µM) | –
10 | CN[C@@H]1[C@H](O[C@H]2[C@H](O[C@H]3[C@H](O)[C@@H](O)[C@H](N=C(N)N)[C@@H](O)[C@@H]3N=C(N)N)O[C@@H](C)[C@]2(O)C=O)O[C@@H](CO)[C@H](O)[C@H]1O [STREPTOMYCIN] | – | 6.25 (≈ 10.7 µM) | – | – | 1.56 (≈ 2.69 µM) | – | 3.12 (≈ 5.37 µM) | 6.25 (≈ 10.7 µM) | – | –
11 | CCO/C(O)=C/C(C)=N/N=C1/c2cc(OC)ccc2-n2c1nc1ccccc1c2=O | 56.2 | 6.25 (≈ 15.5 µM) | 50 (≈ 124 µM) | 58.2 | 3.12 (≈ 7.73 µM) | 54.5 | 6.25 (≈ 15.5 µM) | 12.5 (≈ 30.9 µM) | 50 (≈ 124 µM) | –
12 | CCO/C(O)=C/C(C)=N/N=C1/c2ccccc2-n2c1nc1ccccc1c2=O | 51.1 | 6.25 (≈ 16.7 µM) | 12.5 (≈ 33.4 µM) | 42.9 | 12.5 (≈ 33.4 µM) | 50.6 | 6.25 (≈ 16.7 µM) | 12.5 (≈ 33.4 µM) | 25 (≈ 66.8 µM) | –
